Results on 1 compound are retold here after paper PMC10411625, “Rationally designed stapled peptides allosterically inhibit PTBP1–RNA-binding” (Chemical Science, 2023).

In the assay the target is T1, PTBP1 RRM12-L151G (Homo sapiens, UniProt P26599, L151G).
T1 construct: (P57-V265); MBP (from pMAL vector); His tag; made in house; host or cells: E. coli BL21 DE3 RIL
T1 sequence (P26599 57-265 L151G): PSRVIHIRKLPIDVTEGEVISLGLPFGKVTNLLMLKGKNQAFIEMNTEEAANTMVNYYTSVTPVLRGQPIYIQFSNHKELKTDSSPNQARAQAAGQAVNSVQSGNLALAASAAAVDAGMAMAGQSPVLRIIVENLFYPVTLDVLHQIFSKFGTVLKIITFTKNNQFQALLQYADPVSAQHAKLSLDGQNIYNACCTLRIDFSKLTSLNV
The assay can be described thus: Competitive fluorescence polarization assay, RRM12-L151G and RNA-2. The format is binding. Conditions: Fig. 3C; competitive FP with RNA-2; read-out: P-6 Ki, construct RRM12-L151G. From the text: Different PTBP1 variants were used to investigate the mode of action of P-6via competitive FP experiments. As illustrated in Fig. 1A there is a short linker between RRM1 and the α3-helix which also makes contacts with the RNA. It is possible that when P-6 occupies the binding site of the helix, this linker is displaced disrupting its interactions with the RNA and lowering the RNA-binding affinity. To test this, we measured whether P-6 could inhibit RRM1 RNA-binding. […] Therefore, it seems most likely that P-6 inhibits RRM12 via disturbing the coordinated RNA-binding of the two RRM domains. As this is possibly regulated by the helix we tested if the peptide could inhibit RRM12–L151G where the role of the helix is reduced (Fig. 3C and S5 ^†). […] These findings further support a mode of action where P-6 disturbs coordinated RNA-binding by RRM1 and 2. […]
size exclusion chromatography (Superdex 75 16/60 or 26/60) with SEC buffer (50 mM Tris, 200 mM NaCl). Protein homogeneity was assessed by the size exclusion chromatogram and purity was checked by SDS-PAGE analysis to be >= 90%.
The gene encoding for SRSF1-RRM12 (1-195) was subcloned into pOPIN-His expression vector and expressed in E. coli BL21 (DE3). […]
Fluorescence polarization assay with PTBP1 […]
For orientation: In fluorescence polarisation assays a small probe gives low polarisation when free and higher when bound to something large.

SMILES strings stand for the structures.

What is called Ki is a measure of affinity in units of concentration, obtained from inhibition or displacement. `CC(=O)N[C@@H](CC(N)=O)C(=O)N[C@@H](CCC(N)=O)C(=O)N[C@@]1(C)CCCC=CCCCC2(CCCC=CCCC[C@](C)(C(=O)N[C@H](C(=O)N[C@@H](CC(N)=O)C(N)=O)C(C)C)NC(=O)[C@H](CCC(N)=O)NC(=O)[C@H](CC(C)C)NC(=O)[C@H](C)NC2=O)NC(=O)[C@H](CCC(N)=O)NC(=O)[C@H](C)NC(=O)[C@H](CCCNC(=N)N)NC1=O` (stereo partly shown) [Peptide P-6]: the Ki is greater than 750 µM.
